Experimental data published in article PMC5187899, “Discovery of Anti-Hypertensive Oligopeptides from Adlay Based on In Silico Proteolysis and Virtual Screening” (International Journal of Molecular Sciences, 2016).
No end group written: not given here.

Target: T1, ACE from rabbit lungs (Oryctolagus cuniculus, UniProt P12822)
T1 construct: ACE from rabbit lungs and HHL was supplied by Sigma-Aldrich; purchased Sigma-Aldrich (St. Louis, MO, USA); host or cells: rabbit lung tissue
T1 sequence (P12822 34-1310): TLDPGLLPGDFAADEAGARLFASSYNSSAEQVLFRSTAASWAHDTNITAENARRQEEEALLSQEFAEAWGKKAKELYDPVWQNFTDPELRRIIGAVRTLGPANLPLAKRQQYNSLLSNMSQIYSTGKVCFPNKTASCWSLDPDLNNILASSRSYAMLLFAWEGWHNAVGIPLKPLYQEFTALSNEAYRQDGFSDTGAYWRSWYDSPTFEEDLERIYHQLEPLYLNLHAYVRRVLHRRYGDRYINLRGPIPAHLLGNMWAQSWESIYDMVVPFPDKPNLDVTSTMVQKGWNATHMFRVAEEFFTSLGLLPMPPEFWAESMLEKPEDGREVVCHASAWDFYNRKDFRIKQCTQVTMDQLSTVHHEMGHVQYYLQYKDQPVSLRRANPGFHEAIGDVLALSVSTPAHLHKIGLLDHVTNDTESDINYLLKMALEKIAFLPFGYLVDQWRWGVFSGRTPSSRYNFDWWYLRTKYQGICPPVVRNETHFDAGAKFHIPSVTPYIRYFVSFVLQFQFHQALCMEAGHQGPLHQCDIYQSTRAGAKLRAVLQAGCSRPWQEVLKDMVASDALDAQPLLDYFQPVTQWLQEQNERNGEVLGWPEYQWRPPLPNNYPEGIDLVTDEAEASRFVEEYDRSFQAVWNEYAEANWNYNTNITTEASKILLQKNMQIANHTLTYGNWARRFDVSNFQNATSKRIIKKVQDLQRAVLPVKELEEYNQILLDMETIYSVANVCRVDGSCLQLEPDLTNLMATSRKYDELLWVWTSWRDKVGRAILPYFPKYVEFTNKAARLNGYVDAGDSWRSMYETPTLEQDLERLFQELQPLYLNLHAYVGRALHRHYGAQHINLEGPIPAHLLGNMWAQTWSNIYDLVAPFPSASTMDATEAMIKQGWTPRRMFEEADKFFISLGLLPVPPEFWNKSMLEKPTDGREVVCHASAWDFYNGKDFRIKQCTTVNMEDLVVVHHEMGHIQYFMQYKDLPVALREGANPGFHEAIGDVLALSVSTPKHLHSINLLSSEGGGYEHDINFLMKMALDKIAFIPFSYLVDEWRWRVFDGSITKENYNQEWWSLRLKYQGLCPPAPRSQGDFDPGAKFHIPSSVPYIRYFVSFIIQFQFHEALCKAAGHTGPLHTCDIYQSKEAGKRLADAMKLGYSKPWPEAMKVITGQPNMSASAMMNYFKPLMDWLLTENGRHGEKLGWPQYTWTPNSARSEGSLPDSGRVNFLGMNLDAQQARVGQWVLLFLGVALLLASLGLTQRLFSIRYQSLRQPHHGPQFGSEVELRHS
Assay: ACE inhibitory activity assay by RP-HPLC (HHL substrate, hippuric acid detection)
Format: biochemical
Conditions: for ACE inhibitory activity (in words): chromatograms at 0.048 mg/mL
From the text: The potential oligopeptides obtained by docking were chemically synthesized by the Beijing Scilight Biotechnology Ltd., Co. (Beijing, China). The purity levels of the synthesized oligopeptides were all greater than 98% by HPLC analysis. ACE from rabbit lungs and HHL was supplied by Sigma-Aldrich (St. Louis, MO, USA). Acetonitrile of HPLC grade was purchased from Fisher Scientific (Pittsburgh, PA, USA). Lisinopril was supplied by Beijing HWRK Chem Co., Ltd. (Beijing, China) with more than 98% purity. All other used chemicals were of analytical grade.
The assay of in vitro ACE inhibitory activity was performed by RP-HPLC method by Yuan. Initially, the mixture was incubated at 37 °C for 10 min, including 10 μL of samples and 20 μL ACE (2 mU). After adding 20 μL of 2 mM HHL, the mixture continued to be incubated for 60 min until acetonitrile was added to terminate reaction. HA from the hydrolysis of the substrate HHL was detected by RP-HPLC on a C18 column (250 × 4.6 mm, 5 μm, Tianhe) at 228 nm. The column was eluted at a flow rate of 1 mL/min using 25% (v/v) acetonitrile in water with 0.05% trifluoroacetic acid. Lisinopril and borate buffer solution were used as positive and negative control, respectively. The formula (1) for computing ACE inhibitory rate is shown as follows. Wherein, Acontrol is the peak area of HA by negative control and Asample is the peak area of HA by the sample. The IC50 was calculated by the dosage and efficiency curve based on the 50% inhibition of ACE. (1) Inhibitory activity (%)=Acontrol−Asample/Acontrol×100%

Row | Molecule | ACE inhibitory activity (in words) (RP-HPLC) | further results
1 | NCCCC[C@H](N[C@@H](CCc1ccccc1)C(=O)O)C(=O)N1CCC[C@H]1C(=O)O [Lisinopril, lisinopril, reference compound] |  | ACE inhibition ratio (lisinopril 2 × 10^−9 mol/L, RP-HPLC, 228 nm, 37 °C, 2 mM HHL, 60 min): 77.86% ± 0.15%
2 | NCHEF [oligopeptide from in silico proteolysis of adlay prolamins, chemically synthesized] | could not obtain the desirable activities of ACE | 
3 | NPATY [NPATY] |  | IC50 (RP-HPLC on C18 column, 228 nm, 10 μL sample + 20 μL ACE (2 mU), 37 °C 10 min pre-incubation, 20 μL of 2 mM HHL, 60 min, from dosage and efficiency curve): 61.9 ± 2.77 µM
4 | VSAIGF [oligopeptide from in silico proteolysis of adlay prolamins, chemically synthesized] | could not obtain the desirable activities of ACE | 
